According to patent US20130143964A1, “S[…], AND COSMETIC COMPOSITION, FOOD, AND SUNDRY ARTICLE CONTAINING THE SAME” (priority 2010, published 2013):

Test system: activity of the sympathetic nerve
Experiment: Test of measuring sympathetic nerve activity: power spectrum analysis of systolic blood pressure fluctuation (SBP-LF) when smelling the aroma
Format: in vivo, human test subjects
Description: The test samples were prepared by diluting ethyl 4-methoxybenzoate with ethanol to a concentration of 0.1 mass %, and how the aromas of those test samples influenced the sympathetic nerve activity was tested.
(Test Method of Measuring Sympathetic Nerve Activity)
A heart beat interval or blood pressure constantly change in a complex manner even at rest, and is under control of multiple nervous systems representing the sympathetic nerve and the parasympathetic nerve. Thus, it is known that the activity of respective nervous systems can be calculated by analyzing the frequency of a heart beat interval variation (a heart beat interval fluctuation) or a blood pressure variation (a blood pressure fluctuation). […] The activity of the sympathetic nerve is quantified from the intensity of the low frequency component (SBP-LF), and an influence of an aroma given off from the test sample on the activity of the sympathetic nerve was evaluated. […]
A tonometry sensor was fitted at a carpal radius […] of a test subject, and is connected to a patient monitor for continuous measurement of blood pressure. […] Continuously measured blood pressure data was taken in a personal computer to undergo power spectrum analysis of the blood pressure fluctuation in systole using automatic nervous system activity analytical software. […]

SMILES: CCOC(=O)c1ccc(OC)cc1 [ethyl 4-methoxybenzoate]
- activity of the sympathetic nerve (determination from SBP-LF ratio) (six test subjects in their 20's smelling aroma of 0.1 mass % test sample): the activity of the sympathetic nerve quieted down
- SBP-LF ratio (SBP-LF value when smelling the aroma divided by SBP-LF value when not smelling the aroma) (six test subjects in their 20's, 0.1 mass % in ethanol, 20 μl soaked into cotton stuck below the nose, ethanol volatilized, 25° C., humidity 45%): smaller than 1
